# Active and inactive are the calls of the source. The calls are words filed in the database; no cut-off is given here.
# Legend:
# Mus musculus [1] = assay: Anticonvulsant activity in CF1 albino mouse assessed as protection against maximal electroshock-induced seizures at 30 mg/kg, po after 1 hr; type: functional
# Mus musculus [2] = assay: Anticonvulsant activity in CF1 albino mouse assessed as protection against maximal electroshock-induced seizures at 30 mg/kg, po after 0.5 hrs; type: functional
# Mus musculus [3] = assay: Neurotoxicity in CF1 albino mouse assessed as ability to grasp rotarod at 300 mg/kg, ip after 0.5 hrs by rotarod test; type: toxicity, organism-based; set-up: dose 300 mg/kg, route intraperitoneal; details: in vivo
# Mus musculus [4] = assay: Anticonvulsant activity in CF1 albino mouse assessed as protection against maximal electroshock-induced seizures at 30 mg/kg, ip after 0.5 hrs; type: functional
# Mus musculus [5] = assay: Neurotoxicity in CF1 albino mouse assessed as motor impairment at 30 mg/kg, ip after 0.25 hrs by rotarod test; type: toxicity, organism-based; set-up: dose 30 mg/kg, route intraperitoneal; details: in vivo
# Mus musculus [6] = assay: Neurotoxicity in CF1 albino mouse assessed as motor impairment at 30 mg/kg, po after 0.25 hrs by rotarod test; type: toxicity, organism-based; set-up: dose 30 mg/kg, route oral; details: in vivo
# Mus musculus [7] = assay: Neurotoxicity in CF1 albino mouse assessed as motor impairment at 30 mg/kg, ip after 4 hrs by rotarod test; type: toxicity, organism-based; set-up: dose 30 mg/kg, route intraperitoneal; details: in vivo
# Mus musculus [8] = assay: Neurotoxicity in ip dosed CF1 albino mouse assessed as ability to maintain equilibrium for 1 min on […] after 0.5 hrs by rotarod test; type: toxicity, organism-based; details: in vivo
# Mus musculus [9] = assay: Neurotoxicity in CF1 albino mouse assessed as death at 300 mg/kg, ip after 0.5 hrs by rotarod test; type: toxicity, organism-based; set-up: dose 300 mg/kg, route intraperitoneal; details: in vivo
# Mus musculus [10] = assay: Anticonvulsant activity in CF1 albino mouse assessed as protection against maximal electroshock-induced seizures at 30 mg/kg, ip after 0.25 hrs; type: functional
# Mus musculus [11] = assay: Anticonvulsant activity in CF1 albino mouse assessed as protection against maximal electroshock-induced seizures at 30 mg/kg, po after 0.25 hrs; type: functional
# Mus musculus [12] = assay: Neurotoxicity in CF1 albino mouse assessed as motor impairment at 30 mg/kg, ip after 0.5 hrs by rotarod test; type: toxicity, organism-based; set-up: dose 30 mg/kg, route intraperitoneal; details: in vivo
# Mus musculus [13] = assay: Neurotoxicity in CF1 albino mouse assessed as motor impairment at 30 mg/kg, po after 1 hr by rotarod test; type: toxicity, organism-based; set-up: dose 30 mg/kg, route oral; details: in vivo
# Mus musculus [14] = assay: Anticonvulsant activity in CF1 albino mouse assessed as protection against maximal electroshock-induced seizures at 30 mg/kg, po after 2 hrs; type: functional
# Mus musculus [15] = assay: Anticonvulsant activity in CF1 albino mouse assessed as protection against maximal electroshock-induced seizures at 30 mg/kg, po after 4 hrs; type: functional
# Mus musculus [16] = assay: Anticonvulsant activity in CF1 albino mouse assessed as protection against maximal electroshock-induced seizures at 30 mg/kg, ip after 4 hrs; type: functional
# Mus musculus [17] = assay: Neurotoxicity in CF1 albino mouse assessed as motor impairment at 30 mg/kg, po after 0.5 hrs by rotarod test; type: toxicity, organism-based; set-up: dose 30 mg/kg, route oral; details: in vivo
# Mus musculus [18] = assay: Neurotoxicity in CF1 albino mouse assessed as occurance of tremors at 300 mg/kg, ip after 0.5 hrs by rotarod test; type: toxicity, organism-based; set-up: dose 300 mg/kg, route intraperitoneal; details: in vivo
# Mus musculus [19] = assay: Neurotoxicity in CF1 albino mouse assessed as ability to maintain equilibrium for 1 min on […] at 300 mg/kg, ip after 4 hrs by rotarod test; type: toxicity, organism-based; set-up: dose 300 mg/kg, route intraperitoneal; details: in vivo
# Mus musculus [20] = assay: Anticonvulsant activity in ip dosed CF1 albino mouse assessed as inhibition of maximal electroshock-induced seizures after 0.5 hrs; type: functional
# Mus musculus [21] = assay: Neurotoxicity in CF1 albino mouse assessed as motor impairment at 30 mg/kg, po after 2 hrs by rotarod test; type: toxicity, organism-based; set-up: dose 30 mg/kg, route oral; details: in vivo
# Mus musculus [22] = assay: Neurotoxicity in CF1 albino mouse assessed as motor impairment at 30 mg/kg, po after 4 hrs by rotarod test; type: toxicity, organism-based; set-up: dose 30 mg/kg, route oral; details: in vivo
# Mus musculus [23] = assay: Anticonvulsant activity in CF1 albino mouse assessed as protection against maximal electroshock-induced seizures at 30 mg/kg, ip after 2 hrs; type: functional
# Mus musculus [24] = assay: Anticonvulsant activity in ip dosed CF1 albino mouse assessed as inhibition of maximal electroshock-induced seizures after 4 hrs; type: functional
# Mus musculus [25] = assay: Anticonvulsant activity in CF1 albino mouse assessed as protection against maximal electroshock-induced seizures at 30 mg/kg, ip after 1 hr; type: functional
# Mus musculus [26] = assay: Toxicity in CF1 albino mouse assessed as myoclonic jerks at 300 mg/kg, ip after 4 hrs; type: organism-based; set-up: dose 300 mg/kg, route intraperitoneal; details: in vivo
# Mus musculus [27] = assay: Neurotoxicity in CF1 albino mouse assessed as occurance of tremors at 300 mg/kg, ip after 4 hrs by rotarod test; type: toxicity, organism-based; set-up: dose 300 mg/kg, route intraperitoneal; details: in vivo
# Mus musculus [28] = assay: Anticonvulsant activity in CF1 albino mouse assessed as inhibition of subcutaneous pentylenetetrazole-induced seizures at 100 mg/kg, ip after 4 hrs; type: functional, organism-based; set-up: dose 100 mg/kg
# Mus musculus [29] = assay: Toxicity in CF1 albino mouse assessed as myoclonic jerks at 100 mg/kg, ip after 4 hrs; type: organism-based; set-up: dose 100 mg/kg, route intraperitoneal; details: in vivo
# Mus musculus [30] = assay: Neurotoxicity in ip dosed CF1 albino mouse assessed as ability to maintain equilibrium for 1 min on […] after 4 hrs by rotarod test; type: toxicity, organism-based; details: in vivo
# Mus musculus [31] = assay: Anticonvulsant activity in CF1 albino mouse assessed as inhibition of subcutaneous pentylenetetrazole-induced seizures at 300 mg/kg, ip after 4 hrs; type: functional, organism-based; set-up: dose 300 mg/kg
# Mus musculus [32] = assay: Neurotoxicity in CF1 albino mouse assessed as motor impairment at 30 mg/kg, ip after 2 hrs by rotarod test; type: toxicity, organism-based; set-up: dose 30 mg/kg, route intraperitoneal; details: in vivo
# Mus musculus [33] = assay: Neurotoxicity in CF1 albino mouse assessed as motor impairment at 30 mg/kg, ip after 1 hr by rotarod test; type: toxicity, organism-based; set-up: dose 30 mg/kg, route intraperitoneal; details: in vivo
# Mus musculus [34] = assay: Anticonvulsant activity in CF1 albino mouse assessed as inhibition of maximal electroshock-induced seizures at 300 mg/kg, ip after 0.5 hrs; type: functional, organism-based; set-up: dose 300 mg/kg
# Mus musculus [35] = assay: Neurotoxicity in CF1 albino mouse assessed as ability to maintain equilibrium for 1 min on […] at 300 mg/kg, ip after 0.5 hrs by rotarod test; type: toxicity, organism-based; set-up: dose 300 mg/kg, route intraperitoneal; details: in vivo
# Mus musculus [36] = assay: Anticonvulsant activity in ip dosed mouse assessed as inhibition of maximal electroshock-induced seizures; type: functional; details: Mus musculus, ip
# Rattus norvegicus [37] = assay: Anticonvulsant activity in po dosed rat assessed as inhibition of subcutaneous pentylenetetrazole-induced seizures; type: functional
# [38] = Neurotoxicity in ip dosed CF1 albino mouse assessed as ability to maintain equilibrium for 1 min on […] by rotarod test; type: toxicity, organism-based; details: in vivo
# Rattus norvegicus [39] = species: Rattus norvegicus; assay: Protective index, ratio of TD50 for neurotoxicity in rat to ED50 for inhibition of maximal electroshock-induced seizures in rat; type: functional
# Rattus norvegicus [40] = assay: Anticonvulsant activity against maximal electroshock-induced seizures in po dosed rat assessed as time to peak effect; type: functional
# [41] = Neurotoxicity in po dosed rat assessed as ability to maintain equilibrium for 1 min on […] by rotarod test; type: toxicity, organism-based; details: in vivo
# Mus musculus [42] = assay: Anticonvulsant activity in ip dosed CF1 albino mouse assessed as inhibition of subcutaneous pentylenetetrazole-induced seizures; type: functional
# Mus musculus [43] = species: Mus musculus; assay: Protective index, ratio of TD50 for neurotoxicity in CF1 albino mouse to ED50 for inhibition of maximal electroshock-induced seizures in CF1 albino mouse; type: functional
# Mus musculus [44] = assay: Anticonvulsant activity against maximal electroshock-induced seizures in ip dosed CF1 albino mouse assessed as time to peak effect; type: functional
# Mus musculus [45] = assay: Anticonvulsant activity in ip dosed CF1 albino mouse assessed as inhibition of maximal electroshock-induced seizures; type: functional
smiles,measurement,setting,value
Cc1ccccc1C1CC(=O)N(CN2CCN(c3cccc(C(F)(F)F)c3)CC2)C1=O (stereo not drawn),Activity,Mus musculus [1],50%
same,Activity,Mus musculus [2],inactive
same,Activity,Mus musculus [3],Toxic
same,Activity,Mus musculus [4]; route intraperitoneal,50%
same,Activity,Mus musculus [5],Toxic
same,Activity,Mus musculus [6],50%
same,Activity,Mus musculus [7],Non-toxic
same,Activity,Mus musculus [8],300 mg/kg
same,Activity,Mus musculus [9],Toxic
same,Activity,Mus musculus [10]; route intraperitoneal,50%
same,Activity,Mus musculus [11],inactive
same,Activity,Mus musculus [12],Toxic
same,Activity,Mus musculus [13],Non-toxic
same,Activity,Mus musculus [14],25%
same,Activity,Mus musculus [15],50%
same,Activity,Mus musculus [16]; route intraperitoneal,50%
same,Activity,Mus musculus [17],25%
same,Activity,Mus musculus [18],Toxic
same,Activity,Mus musculus [19],Non-toxic
same,Activity,Mus musculus [20],30 mg/kg
same,Activity,Mus musculus [21],Non-toxic
same,Activity,Mus musculus [22],Non-toxic
same,Activity,Mus musculus [23]; route intraperitoneal,50%
same,Activity,Mus musculus [24],30 mg/kg
same,Activity,Mus musculus [25]; route intraperitoneal,100%
COc1ccccc1N1CCN(CN2C(=O)CC(c3ccccc3C(F)(F)F)C2=O)CC1 (stereo not drawn),Activity,Mus musculus [26],Toxic
same,Activity,Mus musculus [27],Toxic
same,Activity,Mus musculus [8],100 mg/kg
same,Activity,Mus musculus [28],Active
same,Activity,Mus musculus [20],300 mg/kg
same,Activity,Mus musculus [29],Toxic
same,Activity,Mus musculus [30],100 mg/kg
same,Activity,Mus musculus [31],Active
same,Activity,Mus musculus [24],300 mg/kg
Cc1ccccc1C1CC(=O)N(CCN2CCN(c3cccc(Cl)c3)CC2)C1=O (stereo not drawn),Activity,Mus musculus [1],25%
same,Activity,Mus musculus [2],inactive
same,Activity,Mus musculus [4],inactive
same,Activity,Mus musculus [5],Non-toxic
same,Activity,Mus musculus [32],Non-toxic
same,Activity,Mus musculus [33],Non-toxic
same,Activity,Mus musculus [6],Non-toxic
same,Activity,Mus musculus [7],Non-toxic
same,Activity,Mus musculus [10],inactive
same,Activity,Mus musculus [11],inactive
same,Activity,Mus musculus [12],Non-toxic
same,Activity,Mus musculus [34],inactive
same,Activity,Mus musculus [13],Non-toxic
same,Activity,Mus musculus [14],inactive
same,Activity,Mus musculus [15],50%
same,Activity,Mus musculus [16],inactive
same,Activity,Mus musculus [35],Non-toxic
same,Activity,Mus musculus [17],Non-toxic
same,Activity,Mus musculus [19],Non-toxic
same,Activity,Mus musculus [21],Non-toxic
same,Activity,Mus musculus [22],Non-toxic
same,Activity,Mus musculus [23],inactive
same,Activity,Mus musculus [24],100 mg/kg
same,Activity,Mus musculus [25],inactive
O=C1CC2(CCc3ccccc3C2)C(=O)N1CCCN1CCN(c2cccc(C(F)(F)F)c2)CC1 (stereo not drawn),ED50,Mus musculus [36],23 mg/kg
O=C1NC(=O)C(c2ccccc2)(c2ccccc2)N1 [PHENYTOIN],ED50,Rattus norvegicus [37],> 500 mg/kg
same,TD50 at 1 min,[38],41.2 mg/kg
same,Ratio TD50/ED50,Rattus norvegicus [39],>21.6
same,Time,Rattus norvegicus [40],2 h
same,Activity,Mus musculus [2],Active
same,Activity,Mus musculus [8],100 mg/kg
same,TD50 at 1 min,[41],> 500 mg/kg
same,ED50,Mus musculus [42],> 500 mg/kg
same,Ratio TD50/ED50,Mus musculus [43],6.52
same,Activity,Mus musculus [20],30 mg/kg
same,Activity,Mus musculus [30],100 mg/kg
same,Time,Mus musculus [44],1 h
same,Activity,Mus musculus [24],30 mg/kg
same,ED50,Mus musculus [45],5.32 mg/kg
